# Experimental data from patent publication US20150153326A1, “QUANTITATIVE ANALYSIS OF CONTACT-DEPENDENT CELL-TO-CELL TRANSFER AND DISEASE TRANSMISSION” (Bergen Teknologioverforing AS, BTO, priority 2013, published 2015).
# System: HeLa-Kyoto cells
# Experiment: contact-dependent cell-to-cell DiD organelle transfer, DiD-stained/unstained 1:400 co-culture, 3D confocal quantification
# Format: cell-based
# Conditions: 100 nM, added 2 hours after plating, cells fixed after 18 hours, 1:400 cell ratio
# Method: HeLa-Kyoto cells were cultured in DMEM:F12 supplemented with 10% fetal calf serum and 1% penicillin/streptomycin (Invitrogen Detection Technologies, Carlsbad, Calif., USA) on 24-well microscopy plates (Greiner Bio-One GmbH). Cells were maintained under humidified air supplemented with 5% CO2 at 37° C. and plated with a density of approximately 35 000 cells/cm^2. After 24 hours, 200 ng (5 μl)/ml lipid analog Vybrant® DiD Cell-Labelling solution (Invitrogen Detection Technologies, Carlsbad, Calif., USA) was added to the plated cells in culture medium, incubated at 37° C. for 20 min wherein tilted 5 times. After the incubation period, the culture medium was exchanged 4 times within 2 hours. […]
# Cells were imaged with a Leica confocal SP5 in resonant scanner mode (zoom 1.7; pinhole airyl; 40× 1.25NA oil immersion objective; 512×512 pixel; z-distance 1.01 μm, line-average 16; offset −1; gain 900-1000V. For the DiD-channel laser power was adjusted for each experiment to a strength resulting in approximately half a cell diameter of out-of-detection range data for average donor cells in order to quantify the transferred DiD in the surrounding cells, present in much lower quantities. For all other channels, the laser power was adjusted to few out-of-detection range pixels at the upper end of the scale. […]
smiles,measurement,value
C=C1[C@@H](C)[C@H]2[C@H](Cc3ccccc3)NC(=O)[C@]23[C@H](OC(C)=O)/C=C/[C@@](C)(O)C(=O)[C@@H](C)C/C=C/[C@H]3[C@@H]1O [Cytochalasin D],contact-dependent cell-to-cell DiD transfer (integrated intensity of DiD signal inside acceptor cells) compared to control,substantially inhibited
